Data: patent US8809344B2, “Compounds, compositions, and methods for control of hepatitis C viral infections” (priority 2008, dated 2014)

Legend:
[1] = system: genotype 2a replicon encoding genotype 1b NS4B amino acids 53-254; assay: Chimeric genotype 1b/2a replicon (NS4B aa 53-254 from 1b) in Huh7.5 cells; type: cell-based, hepatitis C virus
Description: (§1) That NS4B is the target of 80978 was confirmed by a complementary approach. The differential response to 80978 by HCV genotype 1b and 2a replicons allowed the use of chimeric replicons to narrow down the region of the HCV genotype 1b NS4B coding region that confers sensitivity to 80978. The nucleotide sequence of the wild type HCV genotype 2a NS4B is provided as SEQ ID NO: 7 and the wild type HCV genotype 2a NS4B protein sequence is provided as SEQ ID NO:8. Using a plasmid containing an 80978-resistant stable HCV genotype 2a subgenomic reporter replicon cDNA, six replacement, or chimeric constructs were made, where the regions encoding the following amino acids of NS4B were replaced with the regions encoding the corresponding amino acids of NS4B from HCV genotype 1b: (i) 7-254, (ii) 7-52, (iii) 53-254, (iv) 219-254, (v) 7-52 and 219-254, and (vi) 53 to 218. The full-length NS4B protein is 261 amino acids in length and is provided as SEQ ID NO:2. Thus, if any of these segments of NS4B from genotype 1b are sufficient to confer 80978-sensitivity to a genotype 2a HCV replicon, it will render the chimeric genotype 1b/genotype 2a replicon sensitive to the compound.
(§2) Response to 80978 was measured initially in unselected cells. […] All of the chimeric and wild type control constructs were responsive to Cyclosporin A (CsA).

[2] = system: parental genotype 1b (Con1 strain) subgenomic reporter replicon; assay: Parental genotype 1b reporter replicon IVT RNA in Huh7.5 cells; type: cell-based; conditions: Hepatitis C virus
Description: (§3) To identify nucleotide changes that confer resistance to 80978, replicon RNA was reverse transcribed and amplified from total RNA extracted from 80978-resistant and control Clone A cells. […] One silent mutation at amino acid 1771 was also observed. Each mutation was introduced independently into a stable genotype 1b (Con1 strain) subgenomic reporter replicon plasmid via site-directed mutagenesis. […] The sequence of the wild type NS4B encoding sequence is provided as SEQ ID NO:1, the sequence of the mutated NS4B nucleotide sequence encoding the F1809V mutation is provided as SEQ ID NO:3, and the sequence of the mutated NS4B nucleotide sequence encoding the F1809L mutation is provided as SEQ ID NO:5. The sequence of the wild type NS4B protein is provided as SEQ ID NO:2, the sequence of the mutated NS4B protein with the F1809V mutation is provided as SEQ ID NO:4, and the sequence of the mutated NS4B nucleotide sequence encoding the F1809L mutation is provided as SEQ ID NO:6. […] A differential response was observed between cells electroporated with different replicon RNAs.

[3] = system: replicon RNA from 80978-resistant and control Clone A cells in Huh7b cells; assay: Sensitivity of Huh7b cells electroporated with total RNA from resistant or control Clone A cells; type: cell-based, hepatitis C virus
Description: To determine whether resistance was replicon-associated, total RNA was extracted from 80978-resistant and control cells and re-introduced via electroporation into naïve Huh7b cells, the parental cell line of Clone A cells. Electroporated cells that harbored replicon were selected with Geneticin™, pooled, and assayed for sensitivity to 80978.

[4] = system: genotype 2a replicon encoding genotype 1b NS4B amino acids 53 to 218; assay: Chimeric genotype 1b/2a replicon (NS4B aa 53 to 218 from 1b) in Huh7.5 cells; type: cell-based, hepatitis C virus
Description: as §1, §2

[5] = system: genotype 2a replicon with the L1809F mutation; assay: Genotype 2a replicon with L1809F mutation; type: cell-based; conditions: Hepatitis C virus
Protocol: Since leucine at amino acid 1809 in the genotype 1b replicon was mutated from a phenylalanine residue to a leucine or a valine residue to confer resistance to 80978, and the residue at the corresponding position in the parental genotype 2a replicon is leucine, mutagenesis was carried out to determine whether a phenylalanine at this position in the genotype 2a replicon was sufficient to confer sensitivity to 80978.

[6] = system: genotype 1b (Con1 strain) replicon with NS4B F1809V mutation; assay: F1809V mutant reporter replicon IVT RNA in Huh7.5 cells; type: cell-based; conditions: Hepatitis C virus
Description: as §3

[7] = system: subgenomic genotype 2a replicon (J6 and JFH1 strains); assay: Genotype 2a hRluc replicon assay in Huh7 cells, Renilla luciferase readout; type: cell-based; conditions: Hepatitis C virus, Huh-7, 48 h
Protocol: Inhibition of HCV replication by compound AP0080978 (enantiomer 2 from Example 1) was also assayed by exposing cells harboring either HCV genotype 1a, HCV genotype 1b, HCV genotype 2a replicons. […] Final DMSO percentage was 1% in a total volume of 1 ml. After a 72 hour treatment period, total RNA was extracted, quantified via RiboGreen™ assay (Invitrogen-Molecular Probes, Eugene, Oreg., USA), and equivalent amounts of RNA were subjected to quantitative RT-PCR to quantify HCV RNA levels. Activity against genotype 1b was re-confirmed using Clone II cells (U.S. Pat. No. 7,049,428) that contain a stable subgenomic replicon (Con1 strain) with a Arg 1164 Gly adaptive mutation that is distinct from the Ser 1179 Ile adaptive mutation present in Clone VI cells. In this assay, cells were seeded into 96-well plates and treated in quadruplicate with varying concentration of compounds for 72 hours. For each replicate culture, HCV RNA levels were measured by blot hybridization and normalized to β-actin RNA levels. Cytotoxicity was measured using an established neutral red dye uptake assay (Korba and Gerin (1992) Antiviral Res 19:55; Okuse et al (2005) Antiviral Res 65: 23). […] Activity and toxicity against genotype 2a was evaluated in Huh7 cells harboring a stable hRluc-containing subgenomic genotype 2a replicon containing sequence from both J6 and JFH1 strains. […]

O=C(NCc1cccs1)c1nn2c(c1Cl)N[C@H](c1ccco1)C[C@@H]2C(F)(F)F (single isomer, unassigned) [Compound 80978]
response to 80978 ([1]; Geneticin-selected stable replicon-containing cells, amino acids 53-254): responsive | EC50 ([1]; Hepatitis C virus, Huh7.5): < 2500 nM | EC50 [2]: 290 nM | sensitivity to 80978 ([3]; Huh7b cells electroporated with total RNA from 80978-resistant cells): maintained resistance | sensitivity to 80978 ([3]; Huh7b cells electroporated with total RNA from control cells): sensitive | response to 80978 ([4]; Geneticin-selected stable replicon-containing cells, amino acids 53-218): responsive | EC50 ([4]; Hepatitis C virus, Huh7.5): < 2500 nM | EC50 [5]: > 25000 nM | EC50 [6]: > 22500 nM | EC50 [7]: > 25000 nM
